Structures are written as SMILES.

T1 sequence (Q16539 whole entry): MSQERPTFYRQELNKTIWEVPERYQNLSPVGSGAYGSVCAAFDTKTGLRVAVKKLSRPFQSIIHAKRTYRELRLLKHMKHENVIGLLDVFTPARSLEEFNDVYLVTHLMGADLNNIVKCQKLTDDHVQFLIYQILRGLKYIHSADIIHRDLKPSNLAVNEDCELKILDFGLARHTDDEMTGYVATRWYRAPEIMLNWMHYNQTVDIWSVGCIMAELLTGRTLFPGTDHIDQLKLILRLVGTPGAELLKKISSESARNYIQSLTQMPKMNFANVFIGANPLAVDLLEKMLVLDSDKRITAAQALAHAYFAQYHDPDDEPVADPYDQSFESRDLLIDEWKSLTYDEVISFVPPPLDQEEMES

One test addresses T1, Mitogen-activated protein kinase 14 (Homo sapiens, UniProt Q16539).
Description: Binding affinity to full-length GST-tagged p38alpha after 2.5 hrs by TR-FRET competition binding assay
The compound `Cc1ccc(-n2nc(C(C)(C)C)cc2NC(=O)Nc2cccc3ccccc23)cc1C(=O)NCc1ccncn1` yielded a Ki of 327 nM. Consider `Cc1ccc(-n2nc(C(C)(C)C)cc2NC(=O)Nc2cccc3ccccc23)cc1C(=O)NCCCN1CCOCC1`, for which the inhibition constant (Ki) stood at 291 nM. The same measure, in the same setting: the figure for `Cc1ccc(-n2nc(C(C)(C)C)cc2NC(=O)Nc2cccc3ccccc23)cc1C(=O)N(CCCN)C1CCCCC1` is 89 nM; for `Cc1ccc(-n2nc(C(C)(C)C)cc2NC(=O)Nc2cccc3ccccc23)cc1C(=O)NCCN1CCN(C)CC1` it is 140 nM; for `COCCCN1CCC(NC(=O)c2cc(-n3nc(C(C)(C)C)cc3NC(=O)Nc3cccc4ccccc34)ccc2C)CC1` it is 336 nM. The compound `Cc1ccc(-n2nc(C(C)(C)C)cc2NC(=O)Nc2cccc3ccccc23)cc1C(=O)NCCNc1ccccc1` yielded an inhibition constant Ki of 433 nM. In the case of `Cc1ccc(-n2nc(C(C)(C)C)cc2NC(=O)Nc2cccc3ccccc23)cc1C(=O)NCC(CC(C)C)C(N)=O` (stereo not drawn), the Ki was found to be 786 nM.

Take `Cc1ccc(-n2nc(C(C)(C)C)cc2NC(=O)Nc2cccc3ccccc23)cc1C(=O)NC1CCN(CCN2CCOCC2)CC1`: the inhibitory constant (Ki) was 885 nM.

Take `COc1ccccc1CCNC(=O)c1cc(-n2nc(C(C)(C)C)cc2NC(=O)Nc2cccc3ccccc23)ccc1C`: the Ki is more than 3900 nM. Compound `COc1ccc(CCNC(=O)c2cc(-n3nc(C(C)(C)C)cc3NC(=O)Nc3cccc4ccccc34)ccc2C)cc1` registered an inhibition constant (Ki) of more than 3900 nM. Still for that read-out and setting: the figure for `Cc1ccc(-n2nc(C(C)(C)C)cc2NC(=O)Nc2cccc3ccccc23)cc1C(=O)N[C@@H]1CS(=O)(=O)C[C@H]1O` is 112 nM; for `Cc1ccc(-n2nc(C(C)(C)C)cc2NC(=O)Nc2cccc3ccccc23)cc1C(=O)NCC#N` it is 252 nM; for `Cc1ccc(-n2nc(C(C)(C)C)cc2NC(=O)Nc2cccc3ccccc23)cc1C(=O)NCCCN1CCCC1` it is 301 nM. On to `Cc1ccc(-n2nc(C(C)(C)C)cc2NC(=O)Nc2cccc3ccccc23)cc1C(=O)N(CCCN)C(C)C`, for which the inhibitory constant (Ki) was determined as 312 nM. On to `Cc1ccc(-n2nc(C(C)(C)C)cc2NC(=O)Nc2cccc3ccccc23)cc1C(=O)NC[C@@H](CO)C(C)C`, for which the inhibition constant Ki was found to be 471 nM.

`CCN(CCN(C)C)C(=O)c1cc(-n2nc(C(C)(C)C)cc2NC(=O)Nc2cccc3ccccc23)ccc1C`: the affinity corresponds to a Ki of 735 nM. The compound `Cc1ccc(-n2nc(C(C)(C)C)cc2NC(=O)Nc2cccc3ccccc23)cc1C(=O)NCCC1=CCCCC1` had an inhibition constant (Ki) of more than 3900 nM.

In the next test the target is T1, Mitogen-activated protein kinase 14. The source holds these as a separate data set.
Description: Binding affinity to full-length GST-tagged p38alpha by surface plasmon resonance assay
In turn, `Cc1ccc(-n2nc(C(C)(C)C)cc2NC(=O)Nc2cccc3ccccc23)cc1C(=O)NCC#N` registered an equilibrium dissociation constant (Kd) of 55 nM.

(Values after ChEMBL document CHEMBL1255503, “Biochemical and biophysical characterization of unique switch pocket inhibitors of p38α” (Bioorg Med Chem Lett, 2010).)
